Reference: US11117939B2, “Polypeptides and antibodies to treat skin conditions associated with overproduction of sebum” (University of Sasketchewan, priority 2015, dated 2021)

System: SZ95 sebocytes
Assay: Detection of lipids (nile red fluorescence) in SZ95 sebocytes
Assay type: cell-based, human
Details: for production of neutral (sebaceous) lipids: 24 vs 48 hours
Procedure: C., Seltmann, H., Neitzel, H. & Orfanos, C. E. (1999) J. Invest. Dermatol. 113, 1011-1020], were maintained in Sebomed Basal Medium (Biochrom, Berlin) supplemented with 5 ng/ml human epidermal growth factor (Sigma), 10% heat inactivated FCS (Biochrom GmbH, Berlin, Germany), 50 ug/ml gentamicin (GIBCO/BRL), and 1 mM Ca2+, in a humidified atmosphere of 5% CO2 at 37° C. Shortly before the experiments were performed, BSA-medium [constituted of Sebomed Basal Medium supplemented with 1 mg/ml fatty acid-free BSA (Boehringer Mannheim), 1 mM Ca2+, and 10^-6 M linoleic acid (Sigma)] or Sebomed Complete Medium (Biochrom) was added to the cells. The SZ95 human sebocytes used for the experiments were between passages 31 and 35. The cells were subcultured at 60-70% confluence. The cultures were maintained at 37° C. in a humidified 5% CO2 incubator and the medium was replaced every 2-3 days.
The cells were cultured in 96-well tissue culture plates at a density of 2,000 cells per well for 2 days. The wells were then washed with PBS, and Sebomed Complete Medium was added. After 2 days, the medium was harvested, and fresh medium without or with INDIP peptide (SEQ ID NO: 2) at a concentration of 0, 0.1, 1, 10, or 20 μM in the presence and absence of Linoleic acid (5×10^−5 and 10^−4 M) and Testosterone (2×10^−8 M) was given to the cells. The supernatants were harvested 24 or 48 h later; the wells were washed twice with PBS, and 100 μl of a 10 μg/ml nile red solution in PBS was added to each well. 10 uM of scrambled INDIP peptide (i.e. a scrambled version of SEQ ID NO: 2) was used as the negative control peptide. The plates were then incubated at 37° C. for 30 min, and the released fluorescence was read on a Molecular Devices SPECTRAmax Gemini spectrofluorometer. The results are presented as percentages of the absolute fluorescence units in comparison with the controls, using 485 nm excitation and 565 nm emission filters for neutral lipids and 540 nm excitation and 620 nm emission filters for polar lipids. Experiments were performed in triplicate, with 10 wells evaluated for each data point in each experiment.

Sequence: YGRKKRRQRRRGEPHKFKREW ((1)..(11) Tat; (12)..(21) Insig-1) [INDIP peptide (SEQ ID NO: 2), PTD-fused (TAT protein transduction domain) Insig-1 ubiquitination region peptide]
- production of neutral (sebaceous) lipids (10 μM peptide, occasionally, absence or presence of linoleic acid and testosterone): significantly reduced
- production of neutral (sebaceous) lipids (20 μM peptide, greater effect as time progressed, absence or presence of linoleic acid and testosterone): significantly reduced
- sebaceous differentiation (all conditions tested, with and without linoleic acid and testosterone): able to reduce
- lipid production (application to SZ95 sebocytes in vitro): Significant Reduction
- polar lipids (membrane synthesis, synthetic activity of the cells) (concomitant with the neutral lipid reduction, absence or presence of linoleic acid and testosterone): concomitant reduction
